# Assays:
# [1] = target: T1, VMAT2 (Rattus norvegicus, UniProt Q01827); test: Vesicular [^3H]DA uptake assay; type: biochemical
# [2] = tested on: METH self-administration; conditions: rats; cited from earlier work
# [3] = tested on: sucrose-maintained responding; conditions: rats; cited from earlier work
# [4] = target: T1, VMAT2; conditions: cited from earlier work
# [5] = cited from earlier work
# T1 sequence (Q01827 whole entry): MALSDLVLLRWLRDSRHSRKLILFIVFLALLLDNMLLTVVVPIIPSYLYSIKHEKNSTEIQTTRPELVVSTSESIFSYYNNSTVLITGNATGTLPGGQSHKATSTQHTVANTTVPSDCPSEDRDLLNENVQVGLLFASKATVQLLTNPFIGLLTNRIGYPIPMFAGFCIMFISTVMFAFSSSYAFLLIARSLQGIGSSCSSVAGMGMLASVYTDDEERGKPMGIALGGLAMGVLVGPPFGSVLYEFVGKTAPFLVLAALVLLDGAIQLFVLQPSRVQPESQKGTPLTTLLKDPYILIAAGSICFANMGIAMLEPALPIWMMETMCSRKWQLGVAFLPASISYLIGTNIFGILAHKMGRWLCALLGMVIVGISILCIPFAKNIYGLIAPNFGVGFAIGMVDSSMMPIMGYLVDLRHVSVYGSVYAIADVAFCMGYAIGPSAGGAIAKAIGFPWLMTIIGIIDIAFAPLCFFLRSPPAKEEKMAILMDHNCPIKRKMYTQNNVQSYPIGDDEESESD
compound,measurement,setting,value
"Cl.Cl.FCCOc1ccc(CCN2CCN(CCc3ccccc3Cl)CC2)cc1 [Compound 15f, 1-(2-chlorophenethyl)-4-(4-(2-fluoroethoxy)phenethyl)piperazine]",fold less potent at VMAT2 than 15d,[1],32 fold
CN1[C@@H](CCc2ccccc2)CCC[C@H]1CCc1ccccc1 [lobelane],effect on METH self-administration,[2],dose-dependently decreased
same,effect on sucrose-maintained responding,[3],without decreasing
CN1[C@@H](CC(=O)c2ccccc2)CCC[C@H]1C[C@H](O)c1ccccc1 [lobeline],effect on DA uptake into synaptic vesicles via VMAT2,[4],inhibit
same,side-effects in clinical trials,[5],bitter taste and nausea

# From paper PMC5782818 (Bioorganic & medicinal chemistry letters, 2017)
